Test results taken from patent publication US20250129067A1 (Progentos Therapeutics, Inc., priority 2021, published 2025).
pIC50: −log10 of the molar value. Like-named read-outs stand apart in the source and are kept apart here.

How the values were obtained:
[1] = test system: Oligodendrocyte progenitor cells (OPCs); assay: In vitro OPC differentiation assay, GPR17 expression (immunocytochemistry); conditions: 72 hours; for GPR17 Fold Induction (Over Vehicle; 3 μM): 3 μM (10× concentration, final 0.3 μM)
Procedure: To assess the effects of the PDGFRα inhibitors on OPC differentiation, primary OPCs were cultured and exposed to compounds. The number of newly generated oligodendrocytes was assessed by monitoring GPR17 expression. GPR17 is preferentially expressed in actively differentiating oligodendrocytes, allowing them to be distinguished from precursors and more differentiated oligodendrocytes.
Cortices from postnatal day (P) 1-3 rats were dissected and collected into ice cold Hank's Balanced Salt Solution (HBSS). […] Briefly, the cortical cell suspension was centrifuged and washed with buffer (0.5% BSA in PBS) and labeled with Anti-A2B^5 MicroBeads (10 μL beads per 1×10^7 cells) for 15 minutes at 4° C. Following the incubation, cells were washed once with BSA buffer to remove unlabeled beads. A2B^5 positive cells were eluted on the column using the AutoMACS® (Miltenyi, as per manufacturer's protocol using “Possel-s” program). Eluted cells were further washed twice with OPC growth media. Cell counts were performed using Countess III cell counter (ThermoFisher; AMQAX2000) and cells were plated.
The plates were allowed to sit at room temperature for 15 minutes to ensure proper dispersion of cells in a well. The plates were then transferred to the incubator (37° C.; 5% CO2).
Cells were then incubated for 72 hours at 37° C., 5% CO2 before immunostaining for GPR17 marker expression.
Following 72 hours in culture, cells were fixed with 4% paraformaldehyde for 15 minutes and then washed three times in Dulbecco's phosphate buffered saline (DPBS). Prior to immunostaining, cells were treated with a blocking solution (10% normal goat serum containing 1% BSA and 0.1% Triton® X-100 in DPBS) for 15 minutes at room temperature. Primary antibody (anti-GPR17 at 1:2000; Origene TA811615) was applied to cells overnight at 4° C. in incubation solution containing 1% normal goat serum, 1% BSA, and 0.1% Triton X-100 in DPBS. […] The secondary antibody was applied in incubation solution for 2 hours at room temperature, protected from light.
The number of differentiated GPR17+ cells was normalized to the total nuclei count and percent differentiated GPR17+ cells were reported. Statistical analysis was done using one-way ANOVA with multiple comparisons and post-hoc Tukey test in GraphPad Prism (GraphPad Software).

[2] = test system: Oligodendrocyte progenitor cells (OPCs); assay: In vitro OPC differentiation assay, MBP expression (immunocytochemistry); conditions: 72 hours of treatment; fold change over vehicle
Procedure: Cortices from postnatal day (P) 1-3 rats were dissected and collected into ice cold Hank's Balanced Salt Solution (HBSS). […] Briefly, the cortical cell suspension was centrifuged and washed with buffer (0.5% BSA in PBS) and labeled with Anti-A2B5 MicroBeads (10 μL beads per 1×10^7 cells) for 15 minutes at 4° C. Following the incubation, cells were washed once with BSA buffer to remove unlabeled beads. A2B^5 positive cells were eluted on the column using the AutoMACS® (Miltenyi, as per manufacturer's protocol using “possel-s” program). Eluted cells were further washed twice with OPC growth media. Cell count was performed using Countess III cell counter (ThermoFisher; AMQAX2000) and cells were plated.
A2B5+ OPCs were plated in poly-d-lysine (PDL) coated T75 flask at a density of ˜3 million cells per flask. […] TrypLE was normalized by adding 10 mL growth media and cells were centrifuged at 1400 rpm for 10 minutes. […] The plates were allowed to sit at room temperature for 15 minutes to ensure proper dispersion of cells in a well. The plates were then transferred to the incubator (37° C.; 5% CO2).
Cells were then incubated for 72 hours at 37° C., 5% CO2 before immunostaining for MBP marker expression.
Following 72 hours of treatment, cells were fixed with 4% paraformaldehyde for 15 minutes then washed three times in DPBS. Prior to staining, cells were blocked for 15 minutes in 10% normal goat serum containing 1% BSA and 0.1% Triton X-100 in DPBS. Primary antibody (MBP @ 1:2000; Abcam AB7349) was applied to cells overnight at 4° C. in incubation solution containing 1% normal goat serum, 1% BSA, and 0.1% Triton X-100 in DPBS.
The number of differentiated MBP+ cells was normalized to the total nuclei count and percent differentiated MBP+ cells were reported.

PDGFRα = PDGFRα (Homo sapiens (Human), UniProt P16234); assay: PDGFRα kinase enzyme assay (Promega PDGFRα Kinase Enzyme System, ADP-Glo); format: biochemical; conditions: 150 uM ATP
Procedure, shortened: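 Purified PDGFRα protein (20 ng) reacted with test compound per the Promega kinase system protocol. ADP formed was measured by ADP-Glo luminescence against a standard curve, giving IC50.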

[3] = test system: GPR17+ cells (newly differentiated oligodendrocytes); assay: In vivo OPC differentiation, GPR17+ cells in brain; conditions: adult female C57BL/6 mice, PO or IP, treatment period 1-3 days, entire brain, fold change over vehicle treated animals
[4] = 5 μM (10× concentration, final 0.5 μM), fold change over vehicle
[5] = 11-point dose response, 10,000 nM to 0.169 nM, BLQ = below limit of quantitation, read-out: IC50 Values on PDGFRα Kinase Inhibition, IC50
[6] = 20 ng purified PDGFRα, Poly (Glu4Tyr1) substrate, two hours, 11-point dose response, read-out: IC50 Values on PDGFRα Kinase Inhibition
[7] = primary rat OPCs, 5 μM (10x; final 0.5 μM per method), percent GPR17+ cells as fold change over vehicle

Sequence of PDGFRα (P16234 24-1089): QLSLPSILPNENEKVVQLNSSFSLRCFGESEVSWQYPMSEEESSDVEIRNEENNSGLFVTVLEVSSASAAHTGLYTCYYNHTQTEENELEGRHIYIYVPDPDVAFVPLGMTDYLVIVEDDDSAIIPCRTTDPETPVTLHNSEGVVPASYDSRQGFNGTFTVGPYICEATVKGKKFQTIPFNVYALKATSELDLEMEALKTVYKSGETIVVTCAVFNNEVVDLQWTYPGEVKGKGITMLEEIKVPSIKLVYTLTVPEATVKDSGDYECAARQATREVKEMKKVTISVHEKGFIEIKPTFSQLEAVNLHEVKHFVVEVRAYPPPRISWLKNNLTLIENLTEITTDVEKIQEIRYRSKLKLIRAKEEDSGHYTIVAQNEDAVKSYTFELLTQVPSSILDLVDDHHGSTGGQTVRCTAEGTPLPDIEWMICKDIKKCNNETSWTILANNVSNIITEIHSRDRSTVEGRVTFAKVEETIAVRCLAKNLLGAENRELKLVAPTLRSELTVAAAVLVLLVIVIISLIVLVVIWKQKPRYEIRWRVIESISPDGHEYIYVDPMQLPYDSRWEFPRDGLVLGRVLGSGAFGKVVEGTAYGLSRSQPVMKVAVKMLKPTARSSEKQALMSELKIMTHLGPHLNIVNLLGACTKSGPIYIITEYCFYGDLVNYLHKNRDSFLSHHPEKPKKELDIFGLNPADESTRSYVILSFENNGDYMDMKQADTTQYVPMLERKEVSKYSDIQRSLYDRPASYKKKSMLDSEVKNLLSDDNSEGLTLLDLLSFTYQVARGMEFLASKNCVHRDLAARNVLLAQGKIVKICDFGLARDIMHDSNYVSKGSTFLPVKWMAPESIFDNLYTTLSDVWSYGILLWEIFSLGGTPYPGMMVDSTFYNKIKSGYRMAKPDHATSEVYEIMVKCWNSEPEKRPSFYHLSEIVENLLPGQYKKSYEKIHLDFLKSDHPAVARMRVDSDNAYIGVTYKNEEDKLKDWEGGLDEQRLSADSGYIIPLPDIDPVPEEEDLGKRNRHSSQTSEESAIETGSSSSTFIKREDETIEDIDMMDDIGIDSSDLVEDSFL

## 3-[4-(5-benzylpyrimidin-2-yl)piperazin-1-yl]-7-(1-methyl-1H-pyrazol-4-yl)imidazo[1,2-b]pyridazine [Compound 52]
[1]; fold change over vehicle
  GPR17 Fold Induction (Over Vehicle; 3 μM): 9.09
[1]; [4]
  GPR17 Fold Induction (Over Vehicle; 5 μM): 5.41
[2]
  MBP Fold Induction (Over vehicle): 2.66
PDGFRα; [5]
  pIC50: 5.71

## Cn1cc(-c2ccc3c(N4CCN(c5ncc(Cc6ccccc6)cn5)CC4)cnn3n2)cn1 [Compound 8, 3-[4-(5-benzylpyrimidin-2-yl)piperazin-1-yl]-6-(1-methyl-1H-pyrazol-4-yl)pyrazolo[1,5-b]pyridazine]
[1]; fold change over vehicle
  GPR17 Fold Induction (Over Vehicle; 3 μM): 10.86
[1]; [4]
  GPR17 Fold Induction (Over Vehicle; 5 μM): 3.18
[2]
  MBP Fold Induction (Over vehicle): 2.33
PDGFRα; [5]
  pIC50: 5.77

## Cn1cc(-c2ccc3c(N4CCN(c5ncccn5)CC4)cnn3c2)cn1 [Compound 10, 6-(1-methyl-1H-pyrazol-4-yl)-3-(4-pyrimidin-2-ylpiperazin-1-yl)pyrazolo[1,5-a]pyridine]
[1]; fold change over vehicle
  GPR17 Fold Induction (Over Vehicle; 3 μM): 5.65
[1]; [4]
  GPR17 Fold Induction (Over Vehicle; 5 μM): 3.81
[2]
  MBP Fold Induction (Over vehicle): 1.41
PDGFRα; [5]
  pIC50: 5.21

## Cn1cc(-c2ccc3c(N4CCN(C(=O)OCCC5CCOCC5)CC4)cnn3c2)cn1 [Compound 15, 2-(tetrahydro-2H-pyran-4-yl)ethyl 4-[6-(1-methyl-1H-pyrazol-4-yl)pyrazolo[1,5-a]pyridin-3-yl]piperazine-1-carboxylate]
[1]; fold change over vehicle
  GPR17 Fold Induction (Over Vehicle; 3 μM): 6.37
[1]; [4]
  GPR17 Fold Induction (Over Vehicle; 5 μM): 3.98
[2]
  MBP Fold Induction (Over vehicle): 1.97
PDGFRα; [5]
  pIC50: 5.85

## CCC(CC)OC(=O)N1CCN(c2cnn3cc(-c4cnn(C)c4)ccc23)CC1 [Compound 16, 1-ethylpropyl 4-[6-(1-methyl-1H-pyrazol-4-yl)pyrazolo[1,5-a]pyridin-3-yl]piperazine-1-carboxylate]
[1]; fold change over vehicle
  GPR17 Fold Induction (Over Vehicle; 3 μM): 6.82
[1]; [4]
  GPR17 Fold Induction (Over Vehicle; 5 μM): 2.39
[2]
  MBP Fold Induction (Over vehicle): 5.15
PDGFRα; [6]
  pIC50: > 6.00
PDGFRα; [5]
  pIC50: 6.55

## Cn1cc(-c2ccc3c(N4CCN(C(=O)Cc5ccccc5)CC4)cnn3c2)cn1 [Compound 18, 6-(1-methyl-1H-pyrazol-4-yl)-3-[4-(phenylacetyl)piperazin-1-yl]pyrazolo[1,5-a]pyridine]
[1]; fold change over vehicle
  GPR17 Fold Induction (Over Vehicle; 3 μM): 4.40
[1]; [4]
  GPR17 Fold Induction (Over Vehicle; 5 μM): 3.50
[2]
  MBP Fold Induction (Over vehicle): 1.77
PDGFRα; [5]
  pIC50: 5.78

## COCCn1cc(-c2ccc3c(N4CCN(c5ncc(Cc6ccccc6)cn5)CC4)cnn3c2)cn1 [Compound 29, 3-[4-(5-benzylpyrimidin-2-yl)piperazin-1-yl]-6-[1-(2-methoxyethyl)-1H-pyrazol-4-yl]pyrazolo[1,5-a]pyridine]
[1]; fold change over vehicle
  GPR17 Fold Induction (Over Vehicle; 3 μM): 9.41
[1]; [4]
  GPR17 Fold Induction (Over Vehicle; 5 μM): 3.20
[2]
  MBP Fold Induction (Over vehicle): 4.26
PDGFRα; [5]
  pIC50: 6.03

## Cn1cc(-c2ccc3c(N4CCN(c5ncc(C(O)Cc6ccccc6)cn5)CC4)cnn3c2)cn1 (stereo not shown) [Compound 167, 1-(2-{4-[6-(1-methyl-1H-pyrazol-4-yl)pyrazolo[1,5-a]pyridin-3-yl]piperazin-1-yl}pyrimidin-5-yl)-2-phenylethanol]
[1]; fold change over vehicle
  GPR17 Fold Induction (Over Vehicle; 3 μM): 7.07
[2]
  MBP Fold Induction (Over vehicle): 16.83

## COc1ccc(N2Cc3cnc(Nc4ccc(F)cc4)nc3N([C@@H]3CC[C@@H](O)C3)C2=O)cc1 [RO4396686, reference compound]
[1]; [7]
  GPR17 Fold Induction (Over Vehicle; 5 μM): 3.61
[3]
  In vivo GPR17+ cells, GPR17 Fold Induction (Over Vehicle): 9.23
PDGFRα; [6]
  pIC50: 6.43

## CNC(=O)c1cc(COc2nnc(Nc3ccc(Cl)cc3)c3ccoc23)ccn1 [Telatinib, telatinib, reference compound]
[1]; [7]
  GPR17 Fold Induction (Over Vehicle; 5 μM): 3.90
[3]
  In vivo GPR17+ cells, GPR17 Fold Induction (Over Vehicle): 10.68
PDGFRα; [6]
  pIC50: 7.16
